Measurements reported in patent EP2354120A1, “Synthesis of acyloxyalkyl carbamate prodrugs and intermediates thereof” (XenoPort, Inc., priority 2003, dated 2005).
Like-named read-outs stand apart in the source and are kept apart here. Blank lines part the entries; values can stand above or below the compound they belong to.

Legend:
Caco-2 cells = settings: human, Caco-2, 200 uM
Description: Caco-2 cells obtained from continuous culture (passage less than 28) were seeded at high density onto Transwell polycarbonate filters. […] Inserts were placed in 12 or 24 well plates containing buffer and incubated for 30 min at 37C°. Prodrug (200 µM) was added to the apical or basolateral compartment (donor) and concentrations of prodrug and/or released parent drug in the opposite compartment (receiver) were determined at intervals over 1 hour using LC/MS/MS. Values of apparent permeability (Papp) were calculated using the equation: Papp = Vr (dC/dt)//(ACo) [formula]
Here Vr is the volume of the receiver compartment in mL; dC/dt is the total flux of prodrug and parent drug (µM/s), determined from the slope of the plot of concentration in the receiver compartment versus time; Co is the initial concentration of prodrug in µM; A is the surface area of the membrane in cm^2.

pancreatin = format: in vitro ADME, porcine; settings: 5 µM
Description: The reaction was stopped by addition of 2 volumes of methanol.

[1] = format: physicochemical; settings: after 60 min
Description: The chemical stability of prodrugs in aqueous buffers at pH's of 2.0, 7.4 and 8.0 were also measured. […] Each preparation was incubated with test compound at 37°C for one hour. Aliquots (50 µL) were removed at 0, 30, and 60 min and quenched with 0.1% trifluoroacetic acid in acetonitrile. Samples were then centrifuged and analyzed by LC/MS/MS (see Example 86 below for method details).

[2] = format: in vitro ADME; settings: Rat Plasma, 2.0 µM, 37°C, after 60 min
Description: (§1) The stabilities of prodrugs were evaluated in one or more in vitro systems using a variety of tissue preparations following methods known in the art. […] Tissues were obtained from commercial sources (e.g., Pel-Freez Biologicals, Rogers, AR, or GenTest Corporation, Woburn, MA). […] Each preparation was incubated with test compound at 37°C for one hour. Aliquots (50 µL) were removed at 0, 30, and 60 min and quenched with 0.1% trifluoroacetic acid in acetonitrile. Samples were then centrifuged and analyzed by LC/MS/MS (see Example 86 below for method details). […] After centrifugation at 14,000 rpm for 10 min, the supernatant was removed and analyzed by LC/MS/MS. • Caco-2 Homogenate S9 Stability: Caco-2 cells were grown for 21 days prior to harvesting. Culture medium was removed and cell monolayers were rinsed and scraped off into ice-cold 10 mM sodium phosphate/0.15 M potassium chloride, pH 7.4. Cells were lysed by sonication at 4°C using a probe sonicator. Lysed cells were then transferred into 1.5 mL centrifuge vials and centrifuged at 9000 g for 20 min at 4°C. […]
(§2) For stability studies, prodrug (5 µM) was incubated in Caco-2 homogenate S9 fraction (0.5 mg protein per mL) for 60 min at 37°C. Concentrations of intact prodrug and released baclofen were determined at zero time and 60 minutes using LC/MS/MS.

[3] = format: in vitro ADME; settings: Human Plasma, 2.0 µM, 37°C, after 60 min
Description: as §1, §2

[4] = format: in vitro ADME; settings: Rat Liver S9 (0.5 mg/mL), 2.0 µM, NADPH, 37°C, after 60 min
Description: as §1, §2

[5] = format: in vitro ADME; settings: Human Liver S9 (0.5 mg/mL), 2.0 µM, NADPH, 37°C, after 60 min
Description: as §1, §2

[6] = format: in vitro ADME; settings: Caco-2 S9 (0.5 mg protein per mL), 5 µM, 37°C, after 60 min
Description: as §1, §2

[7] = oral; 2 mg t.i.d R-baclofen equivalent to 10 mg t.i.d. racemic baclofen; cited from earlier work
[8] = 1 % (w/v) pancreatin, pH 7.5, 37 °C, after 60 min

Compound: CC(=O)OCOC(=O)NC[C@H](CC(=O)[O-])c1ccc(Cl)cc1.[Na+] [(10), Sodium 4-[(Acetoxymethoxy)carbonylamino]-(3R)-(4-chlorophenyl)-butanoate]
Ratio A-B/B-A (Caco-2 cells): 1.2

Ratio A-B/B-A (Caco-2 cells): 5.9
Compound: O=C([O-])C[C@@H](CNC(=O)OCOC(=O)c1ccccc1)c1ccc(Cl)cc1.[Na+] [(12)]

% of Baclofen Released (pancreatin; [8]): 101%
% of Prodrug Remaining (pancreatin; [8]): 2%
Ratio A-B/B-A (Caco-2 cells): 4.1
Compound: O=C(O)C[C@@H](CNC(=O)OCOC(=O)C1CCCCC1)c1ccc(Cl)cc1 [(14), Sodium 4-[(Cyclohexanecarboxymethoxy)carbonylaminol-(3R)-(4-chlorophenyl)-butanoate]

Compound: CCCC(=O)OCOC(=O)NC[C@H](CC(=O)O)c1ccc(Cl)cc1 [(16), Sodium 4-[(Butanoyloxymethoxy)carbonylamino]-(3R)-(4-chlorophenyl)-butanoate]
% of Baclofen Released (pancreatin; pig, pancreatin, 1 h, pH 7.5): 84%
% of Prodrug Remaining (pancreatin; pig, pancreatin, 1 h, pH 7.5): 1%

Compound: CC(C)C(=O)OCOC(=O)NC[C@H](CC(=O)O)c1ccc(Cl)cc1 [(18), Sodium 4-[(Isobutanoyloxymethoxy)carbonylamino]-(3R)-(4-chlorophenyl)-butanoate]
% of Baclofen Released (pancreatin; pig, pancreatin, 1 h, pH 7.5): 91%
% of Prodrug Remaining (pancreatin; pig, pancreatin, 1 h, pH 7.5): 2%

Compound: CCCC(=O)OC(OC(=O)NC[C@H](CC(=O)O)c1ccc(Cl)cc1)C(C)C (stereo partly drawn) [(27), Sodium 4-[(1-Butanoyloxyisobutoxy)carbonylamino]-(3R)-(4-chlorophenyl)-butanoate]
% of Baclofen Released (pancreatin; [8]): 9%
% of Prodrug Remaining (pancreatin; [8]): 71%
Ratio A-B/B-A (Caco-2 cells): 6.9

Compound: CC(=O)OC(C)OC(=O)NC[C@H](CC(=O)O)c1ccc(Cl)cc1 (stereo partly drawn) [(30), Sodium 4-[(1-Acetoxyethoxy)carbonylamino]-(3R)-(4-chlorophenyl)-butanoate]
% of Baclofen Released (pancreatin; pig, pancreatin, 1 h, pH 7.5): 9%
% of Prodrug Remaining (pancreatin; pig, pancreatin, 1 h, pH 7.5): 90%

Compound: CCCC(=O)OC(C)OC(=O)NC[C@H](CC(=O)[O-])c1ccc(Cl)cc1.[Na+] (stereo partly drawn) [(32), Sodium 4-[(1-Butanoyloxyethoxy)carbonylamino]-(3R)-(4-chlorophenyl)-butanoate]
Ratio A-B/B-A (Caco-2 cells): 7.6

Ratio A-B/B-A (Caco-2 cells): 1.1
Compound: CC(OC(=O)NC[C@H](CC(=O)O)c1ccc(Cl)cc1)OC(=O)C1CCCCC1 (stereo partly drawn) [(38), Sodium 4-[(1-Cyclohexylcarbonyloxyethoxy)carbonylamino]-(3R)-(4-chlorophenyl)-butanoate]

% of Baclofen Released ([1]; aqueous buffer pH 2.0, 37°C): 0%
% of Prodrug Remaining ([1]; aqueous buffer pH 2.0, 37°C): 103%
% of Baclofen Released ([1]; aqueous buffer pH 7.4, 37°C): 0%
% of Prodrug Remaining ([1]; aqueous buffer pH 7.4, 37°C): 100%
% of Baclofen Released ([1]; aqueous buffer pH 8.0, 37°C): 2%
% of Prodrug Remaining ([1]; aqueous buffer pH 8.0, 37°C): 107%
% of Baclofen Released [2]: 17%
% of Prodrug Remaining [2]: 72%
% of Baclofen Released [3]: 2%
% of Prodrug Remaining [3]: 101%
% of Baclofen Released [4]: 96%
% of Prodrug Remaining [4]: 8%
% of Baclofen Released [5]: 105%
% of Prodrug Remaining [5]: 1%
% of Baclofen Released [6]: 85%
% of Prodrug Remaining [6]: 15%
% of Baclofen Released (pancreatin; pig, pancreatin, 1 h, pH 7.5): 58%
% of Prodrug Remaining (pancreatin; pig, pancreatin, 1 h, pH 7.5): 43%
Compound: CC(OC(=O)NC[C@H](CC(=O)[O-])c1ccc(Cl)cc1)OC(=O)c1ccccc1.[Na+] (some centres unmarked) [(40)]

Compound: CC(C)C(OC(=O)NC[C@H](CC(=O)O)c1ccc(Cl)cc1)OC(=O)C(C)(C)C (stereo partly drawn) [(43), Sodium 4-[(1-Pivaloyloxyisobutoxy)carbonylamino]-(3R)-(4-chlorophenyl)-butanoate]
% of Baclofen Released (pancreatin; [8]): 4%
% of Prodrug Remaining (pancreatin; [8]): 82%
Ratio A-B/B-A (Caco-2 cells): 2.3

Compound: CCC(=O)OC(OC(=O)NC[C@H](CC(=O)[O-])c1ccc(Cl)cc1)C(C)C.[Na+] (stereo partly drawn) [(48), Sodium 4-[(1-Propanoyloxyisobutoxy)carbonylamino]-(3R)-(4-chlorophenyl)-butanoate]
Ratio A-B/B-A (Caco-2 cells): 6.5

Ratio A-B/B-A (Caco-2 cells): 3.0
Compound: CCOC(C)(OCC)C(=O)OCOC(=O)NC[C@H](CC(=O)[O-])c1ccc(Cl)cc1.[Na+] [(51), Sodium 4-[(2,2-Diethoxypropanoyloxymethoxy)carbonylamino]-(3R)-(4-chlorophenyl)-butanoate]

Ratio A-B/B-A (Caco-2 cells): 2.4
Compound: COc1ccc(C(=O)OCOC(=O)NC[C@H](CC(=O)[O-])c2ccc(Cl)cc2)cc1.[Na+] [(53), Sodium 4-[(4-Methoxybenzoloxymethoxy)carbonylamino]-(3R)-(4-chlorophenyl)-butan oate]

% of Baclofen Released (pancreatin; [8]): 79%
% of Prodrug Remaining (pancreatin; [8]): 1%
Compound: O=C(O)C[C@@H](CNC(=O)OCOC(=O)CCc1ccccc1)c1ccc(Cl)cc1 [(62), Sodium 4-[(3-Phenylpropionoyloxymethoxy)carbonylamino]-(3R)-(4-chlorophenyl)-butanoate]

Compound: CCCC(OC(=O)NC[C@H](CC(=O)[O-])c1ccc(Cl)cc1)OC(=O)c1ccccc1.[Na+] (stereo partly drawn) [(71), Sodium 4-[(1-Benzoyloxybutoxy)carbonylamino]-(3R)-(4-chlorophenyl)-butanoate]
Ratio A-B/B-A (Caco-2 cells): 7.1

Compound: CCCC(OC(=O)NC[C@H](CC(=O)[O-])c1ccc(Cl)cc1)OC(=O)C(C)C.[Na+] (stereo partly drawn) [(72), Sodium 4-[(1-Isobutanoyloxybutoxy)carbonylamino]-(3R)-(4-chlorophenyl)-butanoate]
Ratio A-B/B-A (Caco-2 cells): 3.5

Compound: CCCC(=O)OC(CCC)OC(=O)NC[C@H](CC(=O)[O-])c1ccc(Cl)cc1.[Na+] (stereo partly drawn) [(73), Sodium 4-[(1-Butanoyloxybutoxy)carbonylamino]-(3R)-(4-chlorophenyl)-butanoate]
Ratio A-B/B-A (Caco-2 cells): 3.2

Compound: CCCC(=O)OC(CC)OC(=O)NC[C@H](CC(=O)[O-])c1ccc(Cl)cc1.[Na+] (stereo partly drawn) [(78), Sodium 4-[(1-Butanoyloxypropoxy)carbonylamino]-(3R)-(4-chlorophenyl)-butanoate]
Ratio A-B/B-A (Caco-2 cells): 7.9

Compound: CCCC(=O)O[C@H](CCC)OC(=O)NC[C@H](CC(=O)O)c1ccc(Cl)cc1 [(86), Sodium 4-{[(1S)-Butanoyloxybutoxy]carbonylamino}-(3R)-(4-chlorophenyl)-butanoate]
% of Baclofen Released (pancreatin; [8]): 76%
% of Prodrug Remaining (pancreatin; [8]): 4%

Compound: CCCC(=O)O[C@H](OC(=O)NC[C@H](CC(=O)O)c1ccc(Cl)cc1)C(C)C [(90), Sodium 4-{[(1R)-Butanoyloxyisobutoxy]carbonylamino}-(3R)-(4-chlorophenyl)-butanoate]
% of Baclofen Released (pancreatin; [8]): 68%
% of Prodrug Remaining (pancreatin; [8]): 9%

Compound: CC(C)C(=O)O[C@@H](OC(=O)NC[C@H](CC(=O)O)c1ccc(Cl)cc1)C(C)C [(104), 4-{[(1S)-Isobutanoyloxyisobutoxy]carbonylamino}-(3R)-(4-chlorophenyl) -butanoic Acid]
% of Baclofen Released (pancreatin; 1 % (w/v) pancreatin, pH 7.5, 37 °C, after 60 min, 60 min): 6%
% of Prodrug Remaining (pancreatin; pig, pancreatin, 1 h, pH 7.5): 90%

Compound: NC[C@H](CC(=O)O)c1ccc(Cl)cc1 [R-baclofen, R-(-)-baclofen]
potency relative to orally administered racemic baclofen [7]: about 5 fold
